Three compounds from BigSolDB 2.1 can be followed below.

Each structure is given as a SMILES string.

For the data set the following is noted: in water.

Compound `CCn1cc(C(=O)O)c(=O)c2cc(F)c(N3CCNC(C)C3)c(F)c21` (stereo unspecified) showed a solubility (mole fraction) (293.15 K) of 3.48e-05; a solubility (mole fraction) (298.15 K) of 3.77e-05; a solubility (mole fraction) (303.15 K) of 4.33e-05; a solubility (mole fraction) (308.15 K) of 4.9e-05; a solubility (mole fraction) (313.15 K) of 5.63e-05; a solubility (mole fraction) (318.15 K) of 6.54e-05. Also, the solubility (mole fraction) (323.15 K) was determined as 7.57e-05.
`CCn1cc(C(=O)O)c(=O)c2cc(F)c(N3CCNCC3)cc21` came in with a solubility (mole fraction) (293.15 K) of 2.02e-05; a solubility (mole fraction) (298.15 K) of 2.27e-05; a solubility (mole fraction) (303.15 K) of 2.54e-05; a solubility (mole fraction) (308.15 K) of 2.92e-05; a solubility (mole fraction) (313.15 K) of 3.38e-05; a solubility (mole fraction) (318.15 K) of 3.93e-05. The solubility (mole fraction) (323.15 K) was 4.69e-05.
As for `CCn1cc(C(=O)O)c(=O)c2cnc(N3CCNCC3)nc21`, the solubility (mole fraction) by setting is: (293.15 K) 1.85e-05; (298.15 K) 2.04e-05; (303.15 K) 2.3e-05; (308.15 K) 2.63e-05; (313.15 K) 3.02e-05; (318.15 K) 3.4e-05. The compound also returned a solubility (mole fraction) (323.15 K) of 3.83e-05.

In general, solubility (mole fraction) refers to solubility expressed as the solute's share of all molecules.
